In US20040053996A1, “Use of oxabicyclo[2.2.1]heptane derivatives as pesticidal agents” (priority 2000, published 2004):

Experiments:
Meloidogyne incognita = Meloidogyne incognita test; format: in vivo; conditions: 20 ppm; sand with egg-larvae suspension and lettuce seeds; nematocidal activity from gall formation, 100% = no galls
Method: To produce a suitable preparation of active compound, 1 part by weight of active compound is mixed with the stated amounts of solvent and of emulsifier, and the concentrate is diluted with water to the desired concentration.
Containers are filled with sand, preparation of active compound, a suspension of egg-larvae of Meloidogyne incognita and with lettuce seeds. The lettuce seeds germinate and the plants are allowed to grow. Galls are formed on the roots.
After the desird period of time, the nematocidal activity is determined on basis of the formation of galls and is calculated in %.
An activity of 100% means that no galls have been found, an activity of 0% means that the number of the galls at the treated plants corresponds to the number of galls in the untreated control plants.

[1] = test system: Erysiphe graminis f. sp.hordei; assay: Erysiphe test (barley)/induction of resistance; format: in vivo; conditions: young barley plants sprayed at 750 g/ha; inoculated 4 days after treatment; evaluated 7 days after inoculation; 100% = no disease
Method: Erysiphe Test (Barley)/Induction of Resistance
To produce a suitable preparation of active compound, 1 part by weight of active compound is mixed with the stated amount of solvent, and the concentrate is diluted with water and the stated amount of emulsifier to the desired concentration.
To test for resistance-inducing activity, young barley plants are sprayed with the preparation of active compound at the stated rate of application. 4 days after the treatment, the plants are inoculated with an aqueous spore suspension of Erysiphe graminis f. sp.hordei. The plants are subsequently placed in a greenhouse at 70% relative atmospheric humidity and 18° C.
The test is evaluated 7 days after the inoculation. 0% means an efficacy which corresponds to that of the control while an efficacy of 100% means that no disease is observed.

[2] = test system: green rice leaf hopper (Nephotettix cincticeps); assay: Nephotettix test; format: in vivo; conditions: 1000 ppm, rice seedlings (Oryza sativa) dipped, infested with larvae
Method: To produce a suitable preparation of active compound, 1 part by weight of active compound is mixed with the stated amount of solvent and the stated amount of emulsifier, and the concentrate is diluted with water to the desired concentration.
Rice seedlings (Oryza sativa) are treated by being dipped into the preparation of active compound of the desired concentration and are infested with larvae of the green rice leaf hopper (Nephotettix cincticeps) while the seedlings are still moist.
After the desired period of time, the kill in % is detemruned. 100% means that all leaf hoppers have been killed; 0% means that none of the leaf hoppers have been killed.

[3] = test system: greenhouse red spider mite (Tetranychus urticae); assay: Tetranychus test (OP-resistant/dip treatment); format: in vivo; conditions: 1000 ppm, infested bean plants (Phaseolus vulgaris) dipped, OP-resistant mites
Method: Tetranychus Test (OP Resistant/Dip Treatment)
To produce a suitable preparation of active compound, 1 part by weight of active compound is mixed with the stated amount of solvent and the stated amount of emulsifier, and the concentrate is diluted with emulsifier-containing water to the desired concentration.
Bean plants (Phaseolus vulgaris) which are heavily infested by all stages of the greenhouse red spider mite (Tetranychus urticae) are dipped into a solution of the active compound at the desired concentration.
After the desired period of time, the effect in % in determined. 100% means that all spider mites have been killed; 0% means that none of the spider mites have been killed.

Myzus persicae = assay: Myzus test; format: in vivo; conditions: 100 ppm, infested cabbage leaves (Brassica oleracea) dipped
Method: (§1) To produce a suitable preparation of active compound, 1 part by weight of active compound is mixed with the stated amounts of solvent and of emulsifier, and the concentrate is diluted with emulsifier—containing water to the desired concentration.
Cabbage leaves (Brassica oleracea) which are heavily infested by Myzus persicae are dipped into a preparation of active compound of the desired concentration.
After the desired period of time, the kill in % is determined. 100% means that all aphids have been killed; (0)% means that none of the aphids nave been killed.

[4] = test system: larvae of Phaedon cochleariae; assay: Phaedon larvae test; format: in vivo; conditions: 1000 ppm, cabbage leaves (Brassica oleracea) dipped, infested with larvae
Method: as §1
Cabbage leaves (Brassica oleracea) are treated by being dipped into the preparation of active compound of the desired concentration and are infested with larvae of Phaedon cochleariae while the leaves are still moist.
After the desired period of time, the kill in % is determined. 100% means that all beetle larvae have been killed; 0% means that no beetle larvae have been killed.

Row | SMILES | Efficacy in % [1] | also measured
1 | CC(CNC(=O)C1C2CCC(O2)C1C(=O)O)c1ccccc1 (centres unmarked) |  | kill in % (Meloidogyne incognita): 100%
2 | CC(Cc1ccccc1)NC(=O)C1C2CCC(O2)C1C(=O)O (centres unmarked) | 80% | 
3 | O=C(O)[C@@H]1C2CCC(O2)[C@@H]1C(=O)O |  | Kill in % after 6 days [2]: 100%
4 | O=C(O)C1C2C=CC(O2)C1C(=O)Nc1cccc(Cl)c1 (centres unmarked) | 70% | 
5 | CC(C)(CNC(=O)C1C2C=CC(O2)C1C(=O)O)n1cncn1 (centres unmarked) | 70% | 
6 | COc1ccccc1NC(=O)C1C2CCC(O2)C1C(=O)O (centres unmarked) | 70% | 
7 | Cc1cc(C)c(NC(=O)C2C3CCC(C)(O3)C2C(=O)O)c(C)c1 (centres unmarked) |  | melting point: 168 °C
8 | COC(=O)C1C2C=CC(O2)C1C(=O)OC (centres unmarked) |  | kill in % after 7 days [3]: 90%
9 | O=C(O)C1C2C=CC(O2)C1C(=O)NCc1cc(Cl)nc(Cl)c1 (centres unmarked) | 70% | 
10 | O=C(O)C1C2C=CC(O2)C1C(=O)NCCCc1ccccc1 (centres unmarked) | 70% | 
11 | O=C(O)C1C2C=CC(O2)C1C(=O)O (centres unmarked) |  | Kill in % after 6 days (Myzus persicae): 80%
12 | O=C(O)C1C2CCC(O2)C1C(=O)O (centres unmarked) |  | kill in % after 7 days [4]: 100%
13 | CCOC(=O)C1C2C=CC(O2)C1C(=O)Sc1ccccc1NC(N)=O (centres unmarked) |  | Kill in % after 6 days [2]: 100%
14 | O=C(O)C1C2CCC(O2)C1C(=O)NCCc1ccccc1 (centres unmarked) | 90% | 
